According to patent US8148391B2 (Cephalon, Inc., priority 2006, dated 2012):
Read-outs that look alike come from different tables or passages of the source.

Legend:
[1] = molecular target: T1, baculovirus-expressed ALK (Homo sapiens, UniProt Q9UM73); assay: ALK Kinase Assay (ELISA-type, time-resolved fluorescence); assay type: biochemical
T1 construct: host or cells: baculovirus expression system
Method: (§1) Briefly, each 96-well plate was coated with 100 μL/well of 10 μg/mL substrate (phospholipase C-γ) in Tris-buffered saline (TBS). […] The reaction was initiated by adding enzyme (30 ng/ml ALK) and was allowed to proceed at 37° C. for 15 minutes. Detection of the phosphorylated product was performed by adding 100 μl/well of Eu-N1 labeled PT66 antibody (Perkin Elmer # AD0041).
(§2) Data analysis was performed using ActivityBase (IDBS, Guilford, UK). IC50 values were calculated by plotting percent inhibition versus log10 of the concentration of compound and fitting to the nonlinear regression sigmoidal dose-response (variable slope) equation in XLFit (IDBS, Guilford, UK).

[2] = molecular target: T2, c-Met (cytoplasmic domain) (Homo sapiens, UniProt P08581); assay: c-Met Kinase Assay (same methods as for ALK, with modifications); assay type: biochemical
T2 construct: 10 ng/mL c-Met (cytoplasmic domain, Invitrogen Corporation #PV3143); purchased Invitrogen Corporation PV3143
T2 sequence (P08581 956-1390 limits assumed): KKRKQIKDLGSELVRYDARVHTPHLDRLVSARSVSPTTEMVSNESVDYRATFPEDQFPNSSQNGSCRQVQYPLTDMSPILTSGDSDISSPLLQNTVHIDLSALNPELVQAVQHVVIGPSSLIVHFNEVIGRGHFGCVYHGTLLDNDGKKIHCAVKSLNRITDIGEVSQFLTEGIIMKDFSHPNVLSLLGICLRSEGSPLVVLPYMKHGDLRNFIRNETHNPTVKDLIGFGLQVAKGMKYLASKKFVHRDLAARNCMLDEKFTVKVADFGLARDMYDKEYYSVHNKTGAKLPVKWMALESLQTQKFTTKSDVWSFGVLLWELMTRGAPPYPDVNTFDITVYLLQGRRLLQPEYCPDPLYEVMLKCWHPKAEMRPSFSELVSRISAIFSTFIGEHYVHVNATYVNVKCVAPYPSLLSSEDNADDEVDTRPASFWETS
Method: as §1, §2
Reactions were initiated with 10 ng/mL c-Met (cytoplasmic domain, Invitrogen Corporation #PV3143).

[3] = 1 μM ATP (Km level), read-out: ALK Activity (ALK Kinase Inhibition, IC50)
[4] = 1 μM ATP (Km level), read-out: cMet Activity (c-Met Kinase Inhibition, IC50)
[5] = 1 μM ATP (Km level), 30 ng/ml ALK, 37° C., 15 minutes, read-out: ALK Activity (ALK kinase inhibition, IC50 class)
[6] = 1 μM ATP (Km level), 10 ng/mL c-Met, read-out: cMet Activity (c-Met kinase inhibition, IC50 class)
[7] = ALK kinase inhibition, 1 μM ATP, read-out: ALK Activity
[8] = c-Met kinase inhibition, 1 μM ATP, read-out: cMet Activity
[9] = ALK kinase inhibition, 1 μM ATP (Km level), read-out: ALK Activity
[10] = c-Met kinase inhibition, 1 μM ATP (Km level), read-out: cMet Activity

T1 sequence (Q9UM73 19-1620): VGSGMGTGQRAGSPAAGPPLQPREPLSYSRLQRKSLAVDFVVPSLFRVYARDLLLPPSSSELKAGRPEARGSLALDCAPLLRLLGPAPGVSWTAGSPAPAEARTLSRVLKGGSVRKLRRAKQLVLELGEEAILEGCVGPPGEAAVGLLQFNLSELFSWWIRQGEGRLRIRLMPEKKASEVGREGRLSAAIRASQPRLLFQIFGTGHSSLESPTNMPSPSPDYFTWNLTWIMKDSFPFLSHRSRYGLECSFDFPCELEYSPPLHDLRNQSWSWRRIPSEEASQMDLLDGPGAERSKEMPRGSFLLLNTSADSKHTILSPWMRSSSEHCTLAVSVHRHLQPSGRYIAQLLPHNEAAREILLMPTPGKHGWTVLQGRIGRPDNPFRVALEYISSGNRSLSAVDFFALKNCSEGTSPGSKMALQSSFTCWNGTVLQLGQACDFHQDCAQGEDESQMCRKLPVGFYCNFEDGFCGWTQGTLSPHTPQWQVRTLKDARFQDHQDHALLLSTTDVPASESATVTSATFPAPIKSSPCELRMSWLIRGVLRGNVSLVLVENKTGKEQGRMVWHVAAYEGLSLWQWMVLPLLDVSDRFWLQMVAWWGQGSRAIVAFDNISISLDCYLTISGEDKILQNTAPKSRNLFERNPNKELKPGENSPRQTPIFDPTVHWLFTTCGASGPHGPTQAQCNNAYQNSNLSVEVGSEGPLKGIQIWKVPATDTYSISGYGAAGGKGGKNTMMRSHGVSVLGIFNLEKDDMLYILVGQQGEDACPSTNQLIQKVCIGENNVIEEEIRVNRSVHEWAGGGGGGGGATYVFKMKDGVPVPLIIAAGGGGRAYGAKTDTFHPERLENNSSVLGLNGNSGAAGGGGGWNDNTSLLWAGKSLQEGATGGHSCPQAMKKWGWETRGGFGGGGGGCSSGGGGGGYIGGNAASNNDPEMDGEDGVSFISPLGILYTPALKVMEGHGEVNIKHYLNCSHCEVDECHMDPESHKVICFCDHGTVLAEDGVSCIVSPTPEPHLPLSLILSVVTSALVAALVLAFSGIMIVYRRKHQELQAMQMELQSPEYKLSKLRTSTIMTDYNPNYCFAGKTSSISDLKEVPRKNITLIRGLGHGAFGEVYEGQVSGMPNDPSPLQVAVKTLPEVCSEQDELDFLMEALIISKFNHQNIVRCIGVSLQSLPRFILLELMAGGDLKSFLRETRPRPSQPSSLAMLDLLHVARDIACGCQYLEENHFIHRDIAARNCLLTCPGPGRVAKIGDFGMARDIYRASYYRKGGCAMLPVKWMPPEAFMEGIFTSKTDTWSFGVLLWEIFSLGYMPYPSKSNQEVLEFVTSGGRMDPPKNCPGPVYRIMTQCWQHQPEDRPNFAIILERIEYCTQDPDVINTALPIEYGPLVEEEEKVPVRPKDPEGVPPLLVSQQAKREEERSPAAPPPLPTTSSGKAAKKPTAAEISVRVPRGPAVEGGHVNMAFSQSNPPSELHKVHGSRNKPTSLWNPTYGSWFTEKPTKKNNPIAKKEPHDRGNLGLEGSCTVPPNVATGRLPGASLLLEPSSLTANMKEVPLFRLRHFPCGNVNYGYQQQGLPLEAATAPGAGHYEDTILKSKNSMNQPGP

| Structure (SMILES) | IC50 [1, 3] [nM] | IC50 [2, 4] [nM] | IC50 [1, 7] [nM] | IC50 [2, 8] [nM] | further results |
| --- | --- | --- | --- | --- | --- |
| CNC(=O)c1ccc(Nc2nc(Nc3cc4c(cc3OC)CCN(C(COC)COC)CC4)ncc2Cl)c(OC)c1 [Example 1177, 4-{5-Chloro-2-[8-methoxy-3-(2-methoxy-1-methoxymethyl-ethyl)-2,3,4,5-tetrahydro-1H-benzo[d]azepin-7-ylamino]-pyrimidin-4-ylamino}-3-methoxy-N-methyl-benzamide] | – | – | – | – | IC50 [1, 5]: < 100 nM; IC50 [2, 6]: > 10000 nM |
| COc1cc2c(cc1Nc1ncc(Cl)c(Nc3ccccc3S(=O)(=O)N3CCC(O)C3)n1)CCC(N1CCN(C)CC1)CC2 (stereo not shown) [Example 1098, 1-(2-{5-Chloro-2-[3-methoxy-7-(4-methyl-piperazin-1-yl)-6,7,8,9-tetrahydro-5H-benzocyclohepten-2-ylamino]-pyrimidin-4-ylamino}-benzenesulfonyl)-pyrrolidin-3-ol] | – | – | – | – | IC50 [1, 5]: < 100 nM; IC50 [2, 6]: 1000 to 10000 nM |
| COc1cc2c(cc1Nc1ncc(Cl)c(N[C@H]3[C@@H](C(N)=O)[C@@H]4C=C[C@H]3C4)n1)CCN(C(=O)C1COCCO1)CC2 (stereo partly drawn) [Example 635, (1S,2S,3R,4R)-3-{5-Chloro-2-[3-([1,4]dioxane-2-carbonyl)-8-methoxy-2,3,4,5-tetrahydro-1H-benzo[d]azepin-7-ylamino]-pyrimidin-4-ylamino}-bicyclo[2.2.1]hept-5-ene-2-carboxylic acid amide] | < 100 | > 10000 | – | – | – |
| COc1cc2c(cc1Nc1ncc(Cl)c(Nc3ccccc3S(=O)(=O)N(C)C)n1)CCN(C(=O)C1COCCO1)CC2 (stereo not shown) [Example 634, 2-{5-Chloro-2-[3-([1,4]dioxane-2-carbonyl)-8-methoxy-2,3,4,5-tetrahydro-1H-benzo[d]azepin-7-ylamino]-pyrimidin-4-ylamino}-N,N-dimethyl-benzenesulfonamide] | < 100 | > 10000 | – | – | – |
| CCN1CCc2ccc(Nc3ncc(Cl)c(NC4CCCCNC4=O)n3)cc2CC1 (stereo not shown) [Example 166, 3-[5-Chloro-2-(3-ethyl-2,3,4,5-tetrahydro-1H-benzo[d]azepin-7-ylamino)-pyrimidin-4-ylamino]-azepan-2-one] | – | – | – | – | IC50 [1, 9]: < 100 nM; IC50 [2, 10]: 1000 to 10000 nM |
| C#CCNC(=O)c1cccc(F)c1Nc1nc(Nc2ccc3c(c2)N(CCN(C)C)CCCC3(C)C)ncc1Cl [Example 1639, 2-{5-Chloro-2-[1-(2-dimethylamino-ethyl)-5,5-dimethyl-2,3,4,5-tetrahydro-1H-benzo[b]azepin-8-ylamino]-pyrimidin-4-ylamino}-3-fluoro-N-prop-2-ynyl-benzamide] | – | – | < 100 | 100 to 1000 | – |
| CCN1CCc2ccc(Nc3ncc(C#N)c(Nc4ccccc4C(=O)NC)n3)cc2CC1 [Example 194, 2-[2-(3-Ethyl-2,3,4,5-tetrahydro-1H-benzo[d]azepin-7-ylamino)-5-cyano-pyrimidin-4-ylamino]-N-methyl-benzamide] | – | – | – | – | IC50 [1, 9]: < 100 nM; IC50 [2, 10]: 100 to 1000 nM |
| CCN1C(=O)CCCc2cc(Nc3ncc(Cl)c(N[C@@H]4CCCC[C@H]4NS(C)(=O)=O)n3)c(OC)cc21 [Example 130, N-{(1R,2R)-2-[5-Chloro-2-(1-ethyl-8-methoxy-2-oxo-2,3,4,5-tetrahydro-1H-benzo[b]azepin-7-ylamino)-pyrimidin-4-ylamino]-cyclohexyl}-methanesulfonamide] | – | – | – | – | IC50 [1, 9]: < 100 nM; IC50 [2, 10]: > 10000 nM |
| C#CCNC(=O)c1cccc(F)c1Nc1nc(Nc2ccc3c(c2)N(CC)C(=O)CCC3(C)C)ncc1Cl [Example 1405, 2-[5-Chloro-2-(1-ethyl-5,5-dimethyl-2-oxo-2,3,4,5-tetrahydro-1H-benzo[b]azepin-8-ylamino)-pyrimidin-4-ylamino]-3-fluoro-N-prop-2-ynyl-benzamide] | – | – | – | – | IC50 [1, 5]: 100 to 1000 nM; IC50 [2, 6]: < 100 nM |
| C#CCNC(=O)c1cccc(F)c1Nc1nc(Nc2ccc3c(c2)OCCCN3C(=O)OC)ncc1Cl [Example 1430, 3-[5-Chloro-4-(2-fluoro-6-prop-2-ynylcarbamoyl-phenylamino)-pyrimidin-2-ylamino]-7,8-dihydro-6H-5-oxa-9-aza-benzocycloheptene-9-carboxylic acid methyl ester] | – | – | – | – | IC50 [1, 5]: 100 to 1000 nM; IC50 [2, 6]: < 100 nM |
| COc1cc2c(cc1Nc1ncc(Cl)c(N[C@H]3[C@@H](C(N)=O)[C@@H]4C=C[C@H]3C4)n1)CCN(CC(C)(C)O)CC2 [Example 1560, (1S,2S,3R,4R)-3-{5-Chloro-2-[3-(2-hydroxy-2-methyl-propyl)-8-methoxy-2,3,4,5-tetrahydro-1H-3-benzazepin-7-ylamino]-pyrimidin-4-ylamino}-bicyclo[2.2.1]hept-5-ene-2-carboxylic acid amide] | – | – | < 100 | > 10000 | – |
| CC(C)N1CC2CCC(C1)c1cc(Nc3ncc(Cl)c(N[C@@H]4CCCC[C@H]4NS(C)(=O)=O)n3)ccc12 (stereo partly drawn) [Example 296, N-{(1R,2R)-2-[5-Chloro-2-(10-Isopropyl-10-aza-tricyclo[6.3.2.0*2,7*]trideca-2,4,6-trien-4-ylamino)-pyrimidin-4-ylamino]-cyclohexyl}-methanesulfonamide] | – | – | – | – | IC50 [1, 9]: < 100 nM; IC50 [2, 10]: 100 to 1000 nM |
| COc1cc2c(cc1Nc1ncc(Cl)c(N[C@H]3[C@@H](C(N)=O)[C@@H]4C=C[C@H]3C4)n1)CCN(CC(F)F)CC2 (relative stereo) [Example 763, (2-exo,3-exo)-3-{5-Chloro-2-[3-(2,2-difluoro-ethyl)-8-methoxy-2,3,4,5-tetrahydro-1H-benzo[d]azepin-7-ylamino]-pyrimidin-4-ylamino}-bicyclo[2.2.1]hept-5-ene-2-carboxylic acid amide] | < 100 | > 10000 | – | – | – |
| CCOC(=O)N1CCCOc2ccc(Nc3ncc(Cl)c(Nc4ccsc4C(=O)NC)n3)cc21 [Example 1411, 2-[5-Chloro-4-(2-methylcarbamoyl-thiophen-3-ylamino)-pyrimidin-2-ylamino]-7,8-dihydro-6H-5-oxa-9-aza-benzocycloheptene-9-carboxylic acid ethyl ester] | – | – | – | – | IC50 [1, 5]: 100 to 1000 nM; IC50 [2, 6]: 1000 to 10000 nM |

Further lines, with some results ahead:

| IC50 [1, 3] [nM] | IC50 [2, 4] [nM] | IC50 [1, 7] [nM] | IC50 [2, 8] [nM] | Structure (SMILES) | further results |
| --- | --- | --- | --- | --- | --- |
| 1000 to 10000 | > 10000 | – | – | COc1ccccc1Nc1nc(Nc2cccc3c2OCCCC3)ncc1Cl [Example 864, 5-Chloro-N*4*-(2-methoxy-phenyl)-N*2*-(2,3,4,5-tetrahydrobenzo[b]oxepin-9-yl)-pyrimidine-2,4-diamine] | – |
| – | – | < 100 | < 100 | COCCN1C(=O)CCC(C)(C)c2ccc(Nc3ncc(Cl)c(Nc4c(F)cccc4OCC#N)n3)cc21 [Example 1521, (2-{5-Chloro-2-[1-(2-methoxy-ethyl)-5,5-dimethyl-2-oxo-2,3,4,5-tetrahydro-1H-1-benzazepin-8-ylamino]-pyrimidin-4-ylamino}-3-fluoro-phenoxy)-acetonitrile] | – |
| 100 to 1000 | 100 to 1000 | – | – | COCCN1CCc2ccc(Nc3ncc(Cl)c(Nc4ccccc4-c4nnc(C)s4)n3)cc2CC1 [Example 974, 5-Chloro-N*2*-[3-(2-methoxy-ethyl)-2,3,4,5-tetrahydro-1H-benzo[d]azepin-7-yl]-N*4*-[2-(5-methyl-[1,3,4]thiadiazol-2-yl)-phenyl]-pyrimidine-2,4-diamine] | – |
| < 100 | 1000 to 10000 | – | – | COc1ccccc1Nc1nc(Nc2ccc3c(c2)CCC(N2CCN(C)CC2)CC3)ncc1Cl (stereo not shown) [Example 891, 5-Chloro-N*4*-(2-methoxy-phenyl)-N*2*-[7-(4-methyl-piperazin-1-yl)-6,7,8,9-tetrahydro-5H-benzocyclohepten-2-yl]-pyrimidine-2,4-diamine] | – |
| – | – | 1000 to 10000 | 100 to 1000 | CN1Cc2cc(Nc3ncc(Cl)c(Nc4ccccc4-c4nccn4C)n3)ccc2CCC1=O [Example 1802, 8-{5-Chloro-4-[2-(1-methyl-1H-imidazol-2-yl)-phenylamino]-pyrimidin-2-ylamino}-2-methyl-1,2,4,5-tetrahydro-benzo[c]azepin-3-one] | – |
| – | – | 100 to 1000 | 100 to 1000 | CNC(=O)c1ccsc1Nc1nc(Nc2ccc3c(c2)CCN(CCOC)CC3)ncc1Cl [Example 1484, 2-{5-Chloro-2-[3-(2-methoxy-ethyl)-2,3,4,5-tetrahydro-1H-benzo[d]azepin-7-ylamino]-pyrimidin-4-ylamino}-thiophene-3-carboxylic acid methylamide] | – |
| < 100 | 1000 to 10000 | – | – | COCCN1CCc2ccc(Nc3ncc(Cl)c(Nc4ccc(N5CCOCC5)cc4S(=O)(=O)N(C)C)n3)cc2CC1 [Example 853, 2-{5-Chloro-2-[3-(2-methoxy-ethyl)-2,3,4,5-tetrahydro-1H-benzo[d]azepin-7-ylamino]-pyrimidin-4-ylamino}-N,N-dimethyl-5-morpholin-4-yl-benzenesulfonamide] | – |
| – | – | < 100 | > 10000 | COCCOC(=O)c1ccccc1Nc1nc(Nc2cc3c(cc2OC)CCN(CC(C)O)CC3)ncc1Cl (stereo not shown) [Example 1550, 2-{5-Chloro-2-[3-(2-hydroxy-propyl)-8-methoxy-2,3,4,5-tetrahydro-1H-3-benzazepin-7-ylamino]-pyrimidin-4-ylamino}-benzoic acid 2-methoxy-ethyl ester] | – |
| – | – | 1000 to 10000 | 100 to 1000 | CNC(=O)c1cc(F)ccc1Nc1nc(Nc2ccc3c(c2)-c2nccn2CCC3)ncc1Cl [Example 1847, 2-[5-Chloro-2-(5,6-dihydro-4H-1,3a-diaza-benzo[e]azulen-9-ylamino)-pyrimidin-4-ylamino]-5-fluoro-N-methyl-benzamide] | – |
